What all share (assay type): functional, cell-based
For test [1], the system named is HepG2. In words: Cytotoxicity against human HepG2 cells assessed as reduction in cell growth after 48 hrs by MTS assay. Conditions: HepG2, 48 h; call rule not given here.
Test [2] concerns Huh-7. In words: Cytotoxicity against human HuH7 cells assessed as reduction in cell growth after 48 hrs by MTS assay. The settings on record: Huh-7, 48 h.
Test [3] has as its system HepG2. In words: Cytotoxicity against human HepG2 cells assessed as reduction in cell growth after 48 hrs by MTT assay.
Test [4] concerns Huh-7. In words: Cytotoxicity against human HuH7 cells assessed as reduction in cell growth after 48 hrs by MTT assay.
[5] abbreviates: Homo sapiens, HepG2, 48 h, read-out: IC50.
[6] abbreviates: Homo sapiens, Huh-7, 48 h, read-out: IC50.

Here are results for twelve compounds from ChEMBL document CHEMBL4477230, “Cytotoxic effect of levoglucosenone and related derivatives against human hepatocarcinoma cell lines” (Bioorg Med Chem Lett, 2016).

Turning to `CNC(=O)c1cc(Oc2ccc(NC(=O)Nc3ccc(Cl)c(C(F)(F)F)c3)cc2)ccn1` [SORAFENIB], the IC50 is 12 µM in test [1] and 11.3 µM in test [2].
With `CCCCCCS[C@H]1CC(=O)[C@@H]2OC[C@H]1O2`, the IC50 result in test [3] (hepg2) and in test [4] (huh-7) was “Not Active” each time.
Turning to `O=C1C(Br)=C[C@H]2CO[C@@H]1O2`, the IC50 amounted to 14 µM in test [3] (setting [5]) and 4.68 µM in test [4] (setting [6]).
For `O=C1C=C[C@H]2CO[C@@H]1O2` the same measures were 39.4 µM and 12.9 µM.
As to `O=c1[nH]cc(F)c(=O)[nH]1` [FLUOROURACIL], the concentration for half-maximal inhibition (IC50) is 205 µM in test [3] (setting [5]) and 390 µM in test [4] (setting [6]).
For `O=C1C[C@H](Sc2ccccc2)[C@H]2CO[C@@H]1O2` the same measures were 17 µM and 11 µM.
Consider `CCCCS[C@H]1CC(=O)[C@@H]2OC[C@H]1O2`, for which the half-maximal inhibitory concentration (IC50) result in test [3] (hepg2) and in test [4] (huh-7) was “Not Active” in each case.
In the case of `O=C1C[C@H](n2c(=O)oc3ccccc32)[C@H]2CO[C@@H]1O2`, the values for the IC50 in test [3] (setting [5]) and in test [4] (setting [6]) were 22.2 µM and 8.79 µM, respectively.
The corresponding values for `Cc1ccc(S[C@H]2CC(=O)[C@@H]3OC[C@H]2O3)cc1` are 27.5 µM and 12.8 µM.
Consider `Cc1ccc(S[C@H]2CC(O)[C@@H]3OC[C@H]2O3)cc1` (some centres undefined), for which the IC50 entry in test [3] (hepg2) and in test [4] (huh-7) was “Not Active” in each case.
Consider `COc1cccc2c1C(=O)c1c(O)c3c(c(O)c1C2=O)C[C@@](O)(C(=O)CO)C[C@@H]3O[C@H]1C[C@H](N)[C@H](O)[C@H](C)O1` [DOXORUBICIN], for which the IC50 was 0.68 µM in test [3] (setting [5]) and 0.24 µM in test [4] (setting [6]).
As to `CCCCS[C@H]1CC(O)[C@@H]2OC[C@H]1O2` (some centres undefined), the IC50 entry in test [3] (hepg2) and in test [4] (huh-7) was “Not Active” throughout.
